Tested on: Alanine-aminopeptidase
Assay: GRAM identification with impregnated bottle brush
Type: cell-based, Gram-negative bacteria
Settings: for coloration intensity: semiquantitative scale up to 4
From the text: According to a representative example, the GRAM identification process uses a substrate based on aminobenzene or a derivative thereof, such as DiMethyl-paraPhenyleneDiamine (DMpPD). In the example which follows, the substrate consists of Alanine-Dimethyl-paraPhenyleneDiamine (AlaDMpPD).
It functions as follows. Enzymatic hydrolysis causes release of the DMpPD group. Next, the DMPD binds with α-naphthol (or a derivative) by oxidative coupling facilitated by an oxidizing agent, potassium ferricyanide (K3Fe(CN)6). This then causes formation of a violet-gray complex.
Another device has been defined, which is even more specific in Gram identification and which can also be used with blood agars of Columbia type. It consists of:
a medium consisting of a blood agar of Columbia type (with or without AlaDMpPD), and
a reaction mixture which impregnates a bottle brush and which is constituted on the basis of α-naphthol, potassium ferricyanide and AlaDMpPD and then dried.
This reaction mixture contained in the bottle brush was further improved by adding a step of drying the bottle brushes, which facilitates their subsequent manipulation.
The exact composition is as follows:
for the agar, presence or absence of AlaDMpPD at 0.075 gram per liter (g/l), and
α-naphthol from 0.01 to 5 g/l, preferably from 0.1 to 1 g/l, and for example 0.5 g/l,
potassium ferricyanide from 0.01 to 5 g/l, preferably from 0.1 to 1 g/l, and for example 0.5 g/l, and
AlaDMpPD from 0.01 to 5 g/l, preferably from 0.1 to 1 g/l, and for example 0.35 g/l.
The results obtained in terms of sensitivity and specificity are thus the best obtained. In this case, the detection of the reaction is not instantaneous. It takes 15 to 30 seconds (s) to observe the appearance of any coloration, this being the time required for hydrolysis of the substrate by the bacterial aminopeptidase. […]

Alanine-Dimethyl-paraPhenyleneDiamine [AlaDMpPD]
coloration intensity (Gram-negative bacteria except Pseudomonas): greater than 2
coloration intensity (Gram-positive bacteria or false-positives except S. pyogenes): less than 1
detection time (most Gram-positive bacteria or false-positives, apart from S. pyogenes): > 10 s

From patent US6340573B1, “Chromogenic substrates for detecting bacterial hydrolases” (Bio Merieux, priority 1998, dated 2002)
